Among the data in patent publication US20220089612A1, “HETEROCYCLIC COMPOUNDS AS PRMT5 INHIBITORS” (ANGEX PHARMACEUTICAL, INC., priority 2017, published 2022) are IC50 values, retold here.

The assay concerns the target PRMT5:MEP50 (Homo sapiens, UniProt O14744). Kind of assay: PRMT5:MEP50 Flashplate Assay. The note with it: PRMT5:MEP50 inhibitory activity; 3H-SAM, 2 h at room temperature, top concentration 10 μM. The format is biochemical. As for the experimental part:
PRMT5:MEP50 Flashplate Assay:
Ten-point curves of inhibitor compounds were made using serial threefold dilutions in DMSO (the final top concentration of compound was 10 μM, 1% DMSO). Reaction mixture consisting of 50 mM Tris-HCl (pH 8.5), 0.002% Tween 20, 0.005% BSA (Bovine Serum Albumin), 1 mM TCEP, and 1% DMSO. Substrates are freshly prepared in reaction buffer. PRMT5:MEP50 was then added into substrate solution and mixed gently. Inhibitor compound was then added and incubated for 30 min at room temperature. ^3H-SAM was added to initiate the reaction. Reactions were incubated for 2 h at room temperature and quenched with 0.5 mM SAM (S-adenosyl-L-Methionine) in assay buffer. An aliquot of the reaction mix was transferred to a streptavidin-coated 384-well FlashPlate (PerkinElmer). After an incubation time of 1 h, the plate was washed and then read on a TopCount (PerkinElmer) to measure the amount of tritium incorporated into the peptide substrate. IC50 was calculated using conventional curve-fitting method.

A value given as a limit tells only on which side of the number the result lay.

PRMT5:MEP50, sequence (O14744 whole entry, species assumed): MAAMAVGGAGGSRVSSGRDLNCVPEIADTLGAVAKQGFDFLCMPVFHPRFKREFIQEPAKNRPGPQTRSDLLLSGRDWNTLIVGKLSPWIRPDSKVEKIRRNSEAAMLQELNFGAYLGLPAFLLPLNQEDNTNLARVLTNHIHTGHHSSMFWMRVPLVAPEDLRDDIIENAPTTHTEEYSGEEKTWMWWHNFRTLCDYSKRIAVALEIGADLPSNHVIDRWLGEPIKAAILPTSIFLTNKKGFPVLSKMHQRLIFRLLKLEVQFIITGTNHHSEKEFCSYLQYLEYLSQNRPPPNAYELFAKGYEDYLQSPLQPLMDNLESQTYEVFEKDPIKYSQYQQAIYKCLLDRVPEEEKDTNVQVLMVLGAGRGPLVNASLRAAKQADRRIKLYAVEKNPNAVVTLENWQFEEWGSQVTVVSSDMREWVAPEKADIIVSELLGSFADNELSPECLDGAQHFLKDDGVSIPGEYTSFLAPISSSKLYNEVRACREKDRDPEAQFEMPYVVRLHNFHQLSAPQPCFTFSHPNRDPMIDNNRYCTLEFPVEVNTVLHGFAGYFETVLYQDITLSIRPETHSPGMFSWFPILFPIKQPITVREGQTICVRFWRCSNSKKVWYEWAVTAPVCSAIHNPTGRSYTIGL
PRMT5:MEP50, sequence (Q9BQA1 whole entry partner, species assumed): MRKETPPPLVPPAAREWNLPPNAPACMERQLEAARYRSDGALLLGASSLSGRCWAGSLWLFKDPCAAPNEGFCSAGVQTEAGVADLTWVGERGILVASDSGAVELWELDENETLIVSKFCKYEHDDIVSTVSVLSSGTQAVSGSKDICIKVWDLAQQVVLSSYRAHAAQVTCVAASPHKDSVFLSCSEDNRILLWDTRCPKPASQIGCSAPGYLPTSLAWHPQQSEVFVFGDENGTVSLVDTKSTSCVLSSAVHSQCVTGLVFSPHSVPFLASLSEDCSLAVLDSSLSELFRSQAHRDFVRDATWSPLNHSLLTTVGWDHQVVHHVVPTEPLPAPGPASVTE

`CC(C)[C@@H]1CCc2cc3ccc(CC[C@H]4C[C@@H](n5ccc6c(N)ncnc65)[C@H](O)[C@@H]4O)cc3nc2N1` [Compound 1-39, (1R,2S,3R,5S)-3-(4-amino-7H-pyrrolo[2,3-d]pyrimidin-7-yl)-5-(2-((S)-2-isopropyl-1,2,3,4-tetrahydrobenzo[b][1,8]naphthyridin-8-yl)ethyl)cyclopentane-1,2-diol] returned an IC50 of 1 to 100 nM.

The molecule `Nc1ncnc2c1ccn2[C@@H]1C[C@H](CCc2ccc3cc4c(nc3c2)NOC4)[C@@H](O)[C@H]1O` [Compound 1-14, (1R,2S,3R,5S)-3-(4-amino-7H-pyrrolo[2,3-d]pyrimidin-7-yl)-5-(2-(1,3-dihydroisoxazolo[3,4-b]quinolin-7-yl)ethyl)cyclopentane-1,2-diol] showed an IC50 of less than 1 nM.

`Nc1ncnc2c1ccn2[C@@H]1C[C@H](CCc2ccc3cc4c(nc3c2)N[C@H](C2CC2)CC4)[C@@H](O)[C@H]1O` [Compound 1-38, (1R,2S,3R,5S)-3-(4-amino-7H-pyrrolo[2,3-d]pyrimidin-7-yl)-5-(2-((S)-2-cyclopropyl-1,2,3,4-tetrahydrobenzo[b][1,8]naphthyridin-8-yl)ethyl)cyclopentane-1,2-diol] showed an IC50 of less than 1 nM.

For the molecule `Nc1ncnc2c1ccn2[C@@H]1C[C@H](CCc2ccc3cc4c(nc3c2)NCCCC4)[C@@H](O)[C@H]1O` [Compound 1-41, (1R,2S,3R,5S)-3-(4-amino-7H-pyrrolo[2,3-d]pyrimidin-7-yl)-5-(2-(2,3,4,5-tetrahydro-1H-azepino[2,3-b]quinolin-9-yl)ethyl)cyclopentane-1,2-diol], the IC50 was less than 1 nM.

`Nc1ncnc2c1ccn2[C@@H]1C[C@H](CCc2ccc3cc4c(nc3c2)N[C@H](C2CC2)C4)[C@@H](O)[C@H]1O` [Compound 1-22, (1R,2S,3R,5S)-3-(4-amino-7H-pyrrolo[2,3-d]pyrimidin-7-yl)-5-(2-((S)-2-cyclopropyl-2,3-dihydro-1H-pyrrolo[2,3-b]quinolin-7-yl)ethyl)cyclopentane-1,2-diol] yielded an IC50 of less than 1 nM.

Molecule `NC1=Nc2cc(CC[C@H]3C[C@@H](n4ccc5c(N)ncnc54)[C@H](O)[C@@H]3O)ccc2C2=NCCN12` [Compound 1-8, (1S,2R,3S,5R)-3-(2-(5-amino-2,3-dihydroimidazo[1,2-c]quinazolin-8-yl)ethyl)-5-(4-amino-7H-pyrrolo[2,3-d]pyrimidin-7-yl)cyclopentane-1,2-diol] showed an IC50 of less than 1 nM.

On to `Nc1ncnc2c1ccn2[C@@H]1O[C@H](CCc2ccc3cc4c(nc3c2)NCC4)[C@@H](O)[C@H]1O` [Compound 3-8, (2R,3R,4S,5R)-2-(4-amino-7H-pyrrolo[2,3-d]pyrimidin-7-yl)-5-(2-(2,3-dihydro-1H-pyrrolo[2,3-b]quinolin-7-yl)ethyl)tetrahydrofuran-3,4-diol], for which the IC50 is 1 to 100 nM.

`NC1=Nc2cc(CC[C@H]3O[C@@H](n4ccc5c(N)ncnc54)[C@H](O)[C@@H]3O)ccc2C2=NCCN12` [Compound 3-10, (2R,3S,4R,5R)-2-(2-(5-amino-2,3-dihydroimidazo[1,2-c]quinazolin-8-yl)ethyl)-5-(4-amino-7H-pyrrolo[2,3-d]pyrimidin-7-yl)tetrahydrofuran-3,4-diol] had an IC50 of less than 1 nM.

`Nc1ncnc2c1ccn2[C@@H]1C[C@H](CCc2ccc3cc4c(nc3c2)N[C@H](C2CCC2)CC4)[C@@H](O)[C@H]1O` [Compound 1-40, (1R,2S,3R,5S)-3-(4-amino-7H-pyrrolo[2,3-d]pyrimidin-7-yl)-5-(2-((S)-2-cyclobutyl-1,2,3,4-tetrahydrobenzo[b][1,8]naphthyridin-8-yl)ethyl)cyclopentane-1,2-diol]: the half-inhibitory concentration (IC50) is 1 to 100 nM.

As for `C[C@H]1Cc2cc3ccc(CC[C@H]4C[C@@H](n5ccc6c(N)ncnc65)[C@H](O)[C@@H]4O)cc3nc2NO1` [Compound 1-15, (1R,2S,3R,5S)-3-(4-amino-7H-pyrrolo[2,3-d]pyrimidin-7-yl)-5-(2-((S)-3-methyl-3,4-dihydro-1H-[1,2]oxazino[3,4-b]quinolin-8-yl)ethyl)cyclopentane-1,2-diol], the IC50 lay within 1 to 100 nM.

In the case of `C[C@H]1CCc2cc3ccc(CC[C@H]4C[C@@H](n5ccc6c(N)ncnc65)[C@H](O)[C@@H]4O)cc3nc2N1` [Compound 1-36, (1R,2S,3R,5S)-3-(4-amino-7H-pyrrolo[2,3-d]pyrimidin-7-yl)-5-(2-((S)-2-methyl-1,2,3,4-tetrahydrobenzo[b][1,8]naphthyridin-8-yl)ethyl)cyclopentane-1,2-diol], the IC50 is less than 1 nM.

The molecule `NC1=Nc2cc(CC[C@H]3C[C@@H](n4ccc5c(N)ncnc54)[C@H](O)[C@@H]3O)ccc2[C@@H]2C[C@H]12` (single isomer, unassigned) [Compound 1-10] showed an IC50 of less than 1 nM.

Molecule `CC1(C)CNc2nc3cc(CC[C@H]4O[C@@H](n5ccc6c(N)ncnc65)[C@H](O)[C@@H]4O)ccc3cc21` [Compound 3-9, (2R,3R,4S,5R)-2-(4-amino-7H-pyrrolo[2,3-d]pyrimidin-7-yl)-5-(2-(3,3-dimethyl-2,3-dihydro-1H-pyrrolo[2,3-b]quinolin-7-yl)ethyl)tetrahydrofuran-3,4-diol] yielded an IC50 of 1 to 100 nM.

In turn, `C[C@H]1Cc2cc3ccc(CC[C@H]4C[C@@H](n5ccc6c(N)ncnc65)[C@H](O)[C@@H]4O)cc3nc2N1` [Compound 1-20, (1R,2S,3R,5S)-3-(4-amino-7H-pyrrolo[2,3-d]pyrimidin-7-yl)-5-(2-((S)-2-methyl-2,3-dihydro-1H-pyrrolo[2,3-b]quinolin-7-yl)ethyl)cyclopentane-1,2-diol] registered a 50% inhibitory concentration (IC50) of less than 1 nM.

`Nc1ncnc2c1ccn2[C@@H]1O[C@H](CCc2ccc3c(c2)nc(N)n2ccnc32)[C@@H](O)[C@H]1O` [Compound 3-11, (2R,3R,4S,5R)-2-(4-amino-7H-pyrrolo[2,3-d]pyrimidin-7-yl)-5-(2-(5-aminoimidazo-[1,2-c]quinazolin-8-yl)ethyl)tetrahydrofuran-3,4-diol] displayed an IC50 of 1 to 100 nM.

Turning to `C[C@@H]1CCc2cc3ccc(CC[C@H]4C[C@@H](n5ccc6c(N)ncnc65)[C@H](O)[C@@H]4O)cc3nc2N1` [Compound 1-37, (1R,2S,3R,5S)-3-(4-amino-7H-pyrrolo[2,3-d]pyrimidin-7-yl)-5-(2-((R)-2-methyl-1,2,3,4-tetrahydrobenzo[b][1,8]naphthyridin-8-yl)ethyl)cyclopentane-1,2-diol], the IC50 was less than 1 nM.

Turning to `C[C@@H]1Cc2cc3ccc(CC[C@H]4C[C@@H](n5ccc6c(N)ncnc65)[C@H](O)[C@@H]4O)cc3nc2NO1` [Compound 1-16, (1R,2S,3R,5S)-3-(4-amino-7H-pyrrolo[2,3-d]pyrimidin-7-yl)-5-(2-((R)-3-methyl-3,4-dihydro-1H-[1,2]oxazino[3,4-b]quinolin-8-yl)ethyl)cyclopentane-1,2-diol], the IC50 is less than 1 nM.

`Cn1[nH]c2nc3cc(CC[C@H]4C[C@@H](n5ccc6c(N)ncnc65)[C@H](O)[C@@H]4O)ccc3cc2c1=O` [Compound 1-34, 7-(2-((1S,2R,3S,4R)-4-(4-amino-7H-pyrrolo[2,3-d]pyrimidin-7-yl)-2,3-dihydroxycyclopentyl)ethyl)-2-methyl-1,2-dihydro-3H-pyrazolo[3,4-b]quinolin-3-one] returned an IC50 of more than 100 nM.

For the molecule `NC1=Nc2cc(CC[C@H]3C[C@@H](n4ccc5c(N)ncnc54)[C@H](O)[C@@H]3O)ccc2[C@H]2C[C@@H]12` (single isomer, unassigned) [Compound 1-11], the IC50 is less than 1 nM.

For orientation: IC50 means the midpoint of a concentration-inhibition curve.
